Drawing on ChEMBL document CHEMBL1806384, “Identification of benzofuran-4,5-diones as novel and selective non-hydroxamic acid, non-peptidomimetic based inhibitors of human peptide deformylase” (Bioorg Med Chem Lett, 2011), this text covers IC50 and inhibition for 14 compounds.

Assay [1] in a line: Cytotoxicity against human Meso47 cells. It is filed as functional, cell-based.
In assay [2] the test system is HL-60. The assay is described as follows: Cytotoxicity against human HL60 cells. It is filed as functional, cell-based.
Assay [3] concerns the target T1, Interstitial collagenase (Homo sapiens) (UniProt P03956).
T1 sequence (whole entry): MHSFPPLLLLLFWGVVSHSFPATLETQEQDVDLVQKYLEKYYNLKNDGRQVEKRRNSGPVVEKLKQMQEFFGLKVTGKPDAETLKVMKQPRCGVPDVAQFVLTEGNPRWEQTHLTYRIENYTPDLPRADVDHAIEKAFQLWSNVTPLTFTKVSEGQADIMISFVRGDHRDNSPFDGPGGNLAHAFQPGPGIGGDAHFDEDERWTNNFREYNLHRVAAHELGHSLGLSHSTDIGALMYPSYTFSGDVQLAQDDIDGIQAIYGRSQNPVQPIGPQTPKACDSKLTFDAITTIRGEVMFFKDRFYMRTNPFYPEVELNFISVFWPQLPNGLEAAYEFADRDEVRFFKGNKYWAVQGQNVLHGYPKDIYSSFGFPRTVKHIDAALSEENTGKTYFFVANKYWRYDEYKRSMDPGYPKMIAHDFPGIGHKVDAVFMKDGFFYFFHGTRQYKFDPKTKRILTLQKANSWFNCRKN
The assay is described as follows: Inhibition of human recombinant MMP1 at 100 uM after 1 hr by fluorescence polarization based competition assay.

Another assay deals with Jurkat. The assay can be described thus: Cytotoxicity against human Jurkat cells. Format: functional, cell-based.
Assay [4] deals with T2, Peptide deformylase (Escherichia coli) (UniProt Q9JN24).
T2 sequence (whole entry): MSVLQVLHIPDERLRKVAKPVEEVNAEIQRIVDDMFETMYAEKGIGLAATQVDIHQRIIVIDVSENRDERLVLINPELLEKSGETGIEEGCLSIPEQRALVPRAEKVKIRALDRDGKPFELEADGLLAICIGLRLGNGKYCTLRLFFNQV
The assay is described as follows: Inhibition of Escherichia coli peptide deformylase at 100 uM after 1 hr by fluorescence polarization based competition assay.

In another assay the test system is MOLT-3. The assay can be described thus: Cytotoxicity against human MOLT3 cells. Format: functional, cell-based.
Assay [5] has as its system HL-60. The assay is described as follows: Cytotoxicity against human vincristine-resistant HL60 cells. Format: functional, cell-based.
Assay [6] has as its target T3, Aminopeptidase N (Sus scrofa) (UniProt P15145).
T3 sequence (whole entry): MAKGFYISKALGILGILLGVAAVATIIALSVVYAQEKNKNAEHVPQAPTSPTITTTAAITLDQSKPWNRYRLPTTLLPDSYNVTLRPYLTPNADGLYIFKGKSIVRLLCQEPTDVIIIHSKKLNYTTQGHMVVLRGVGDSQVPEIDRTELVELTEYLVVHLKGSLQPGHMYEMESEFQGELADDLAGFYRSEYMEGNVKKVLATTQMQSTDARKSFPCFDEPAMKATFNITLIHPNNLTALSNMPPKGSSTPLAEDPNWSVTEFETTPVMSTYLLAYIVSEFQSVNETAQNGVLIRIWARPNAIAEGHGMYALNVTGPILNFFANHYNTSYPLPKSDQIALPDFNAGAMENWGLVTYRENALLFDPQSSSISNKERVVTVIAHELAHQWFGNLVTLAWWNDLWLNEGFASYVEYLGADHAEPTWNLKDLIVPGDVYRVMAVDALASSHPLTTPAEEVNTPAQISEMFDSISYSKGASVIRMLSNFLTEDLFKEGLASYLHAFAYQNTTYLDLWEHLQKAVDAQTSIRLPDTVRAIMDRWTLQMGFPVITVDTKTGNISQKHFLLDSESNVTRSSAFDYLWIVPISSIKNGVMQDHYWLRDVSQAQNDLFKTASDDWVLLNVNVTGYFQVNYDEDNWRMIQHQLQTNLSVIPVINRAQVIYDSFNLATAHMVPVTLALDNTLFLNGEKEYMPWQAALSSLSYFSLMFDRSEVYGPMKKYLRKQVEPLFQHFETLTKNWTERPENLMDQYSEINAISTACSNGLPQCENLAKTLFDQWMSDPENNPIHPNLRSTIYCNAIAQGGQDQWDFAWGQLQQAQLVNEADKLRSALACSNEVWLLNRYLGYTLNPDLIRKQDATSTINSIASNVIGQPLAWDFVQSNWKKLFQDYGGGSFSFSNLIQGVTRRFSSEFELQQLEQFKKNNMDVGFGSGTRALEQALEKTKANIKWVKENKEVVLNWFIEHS
The assay is described as follows: Inhibition of porcine kidney microsomal aminopeptidase N at 100 uM after 1 hr by fluorescence polarization based competition assay. A general note: Polarisation of emitted light reports the rotation of a fluorescent probe.

Assay [7] has as its target T4, Peptide deformylase, mitochondrial (Homo sapiens) (UniProt Q9HBH1).
T4 sequence (whole entry): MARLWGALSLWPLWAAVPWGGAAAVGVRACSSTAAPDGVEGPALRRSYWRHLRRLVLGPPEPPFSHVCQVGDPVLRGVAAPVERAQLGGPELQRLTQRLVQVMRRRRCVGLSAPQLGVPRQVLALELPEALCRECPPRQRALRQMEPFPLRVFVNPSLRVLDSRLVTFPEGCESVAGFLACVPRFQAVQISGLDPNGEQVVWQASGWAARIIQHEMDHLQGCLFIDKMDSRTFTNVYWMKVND
The assay can be described thus: Inhibition of human peptide deformylase at 100 uM after 1 hr by fluorescence polarization based competition assay.

For another assay, the system named is Y79. The assay can be described thus: Cytotoxicity against human Y79 cells. Format: functional, cell-based.
A short description of assay [8]: Cytotoxicity against human ALL3 cells. It is filed as functional, cell-based.
The subject of the next assay is HEK293. The assay is described as follows: Cytotoxicity against human HEK293 cells. It is filed as cell-based.
Assay [9] in a line: Cytotoxicity against human CWR22 cells. Format: functional, cell-based.

The IC50 is the concentration at which inhibition is half-maximal. A low value points to inhibition by little substance. The inhibition is the relative decrease from the control value, in per cent. Take `COc1ccc(C(=O)c2coc3c(Cl)c(Cl)c(O)cc23)cc1`: the IC50 (in [1]; with HL-60 [2]; in the assay with Jurkat; in the assay on MOLT-3; in the assay on HL-60 [5]; in the assay on Y79) was 100 µM throughout. Also, the IC50 (in assay [8]; with HEK293; in assay [9]) was 100 µM in each case. Besides, the inhibition in [3] is 14%; in assay [4], 0%; in assay [6], 0%; in assay [7], 13%.
Take `O=C(c1ccccc1)c1coc2ccc(O)cc12`: the IC50 (in assay [1]; in the assay with HL-60 [2]; with Jurkat; in the assay on MOLT-3; in the assay on HL-60 [5]; in the assay on Y79) was 100 µM throughout. In addition, the IC50 (in [8]; in the assay on HEK293; in assay [9]) was 100 µM each time. Moreover, the inhibition in assay [3] worked out at 0%; in assay [4], 7%; in assay [6] it was 10%; in [7], 11%.
With `COc1cc(C(=O)c2coc3c2C(=O)C(=O)c2ccccc2-3)cc(OC)c1OC`, the inhibition in assay [3] turned out to be 0%; in assay [4], 7%; in assay [6] it was 10%; in [7], 5%.
On to `COc1cc(C(=O)c2coc3c(Br)c(Br)c(O)cc23)cc(OC)c1OC`, for which the IC50 in [1] is 100 µM; with HL-60 [2], 79 µM; in the assay with Jurkat, 62 µM; in the assay with MOLT-3, 100 µM; in the assay on HL-60 [5], 100 µM; in the assay with Y79, 100 µM. For the same compound, the IC50 in assay [8] worked out at 60 µM; in the assay with HEK293, 100 µM; in assay [9] it was 100 µM. Further, the inhibition in assay [3] came out at 0%; in assay [4], 7%; in assay [6], 10%; in [7], 5%.
On to `COc1ccc(C(=O)c2coc3c(Br)c(Br)c(O)cc23)cc1`, for which the IC50 (in assay [1]; in the assay on HL-60 [2]; in the assay on Jurkat; in the assay with MOLT-3; in the assay on HL-60 [5]; in the assay with Y79) was 100 µM each time. In addition, the 50% inhibitory concentration (IC50) (in assay [8]; in the assay with HEK293; in assay [9]) was 100 µM in each case. Besides, the inhibition stood at 2% in [3], 3% in assay [4], 0% in assay [6] and 0% in assay [7].
Consider `COc1ccc(C(=O)c2coc3cc(Cl)c(O)c(Cl)c23)cc1`, for which the IC50 in assay [1] is 100 µM; with HL-60 [2], 19 µM; with Jurkat, 24 µM; with MOLT-3 it was 32 µM; with HL-60 [5], 100 µM; in the assay on Y79, 100 µM. In addition, the IC50 in assay [8] was 100 µM; in the assay on HEK293, 32 µM; in [9] it was 100 µM. The inhibition in assay [3] amounted to 0%; in assay [4], 3%; in [6] it was 0%; in assay [7] it was 26%.
On to `O=C(c1ccccc1)c1coc2c(Cl)c(Cl)c(O)cc12`, for which the 50% inhibitory concentration (IC50) (in assay [1]; with HL-60 [2]; with Jurkat; in the assay on MOLT-3; in the assay with HL-60 [5]; in the assay with Y79) was 100 µM throughout. The IC50 (in [8]; in the assay with HEK293; in [9]) was 100 µM throughout. For the same compound, the inhibition was determined as 0% in assay [3], 1% in [4], 6% in assay [6] and 24% in [7].
Turning to `COc1ccc(C(=O)c2coc3ccc(O)c(Br)c23)cc1`, the IC50 (in [1]; in the assay on HL-60 [2]; with Jurkat; in the assay on MOLT-3; in the assay on HL-60 [5]; in the assay with Y79) was 100 µM each time. The concentration for half-maximal inhibition (IC50) (in [8]; with HEK293; in assay [9]) was 100 µM throughout. For the same compound, the inhibition in assay [3], in assay [4], in assay [6] and in assay [7] was 0% each time.
As to `COc1ccc(C(=O)c2coc3c2C(=O)C(=O)c2ccccc2-3)cc1`, the inhibition turned out to be 2% in assay [3], 3% in assay [4], 0% in [6] and 0% in assay [7].
Take `COc1ccc(C(=O)c2coc3c(Cl)cc(O)c(Cl)c23)cc1`: the concentration for half-maximal inhibition (IC50) (in assay [1]; with HL-60 [2]; in the assay on Jurkat; in the assay with MOLT-3; in the assay on HL-60 [5]; in the assay on Y79) was 100 µM throughout. Besides, the IC50 (in assay [8]; in the assay on HEK293; in assay [9]) was 100 µM throughout. Besides, the inhibition in assay [3] is 0%; in assay [4], 0%; in [6], 0%; in assay [7], 9%.
In the case of `COc1ccc(C(=O)c2coc3c(Cl)c(Cl)c(O)cc23)cc1OC`, the IC50 (in assay [1]; in the assay on HL-60 [2]; in the assay with Jurkat; with MOLT-3; in the assay on HL-60 [5]; in the assay on Y79) was 100 µM throughout. Also, the IC50 (in [8]; in the assay on HEK293; in assay [9]) was 100 µM in each case. The inhibition in assay [3], in assay [4], in [6] and in assay [7] was 0% in each case.
Consider `COc1ccc(C(=O)c2coc3c2C(=O)C(=O)c2ccccc2-3)cc1OC`, for which the inhibition in assay [3], in assay [4], in assay [6] and in assay [7] was 0% in each case.
As to `COc1ccc(C(=O)c2coc3c(Br)cc(O)c(Br)c23)cc1`, the IC50 in [1] was 100 µM; in the assay with HL-60 [2], 9 µM; with Jurkat it was 8 µM; in the assay on MOLT-3, 10 µM; in the assay on HL-60 [5] it was 40 µM; in the assay with Y79, 64 µM. Also, the 50% inhibitory concentration (IC50) in assay [8] amounted to 68 µM; with HEK293 it was 10 µM; in [9], 57 µM. The inhibition in assay [3], in assay [4], in assay [6] and in assay [7] was 0% in each case.
Regarding `COc1ccc(C(=O)c2coc3c(Br)cc(O)cc23)cc1`, the IC50 (in [1]; with HL-60 [2]; in the assay with Jurkat; with MOLT-3; with HL-60 [5]; with Y79) was 100 µM each time. Moreover, the IC50 (in assay [8]; with HEK293; in [9]) was 100 µM throughout. Also, the inhibition in assay [3] was determined as 0%; in assay [4], 9%; in assay [6] it was 0%; in [7], 11%.
